# Values quoted from earlier work in US9314478B2, “Method of making an anhydrous, fat soluble, chewable drug delivery formulation” (Argenta Manufacturing Limited, priority 2013, dated 2016).
row,Aqueous solubility,Molecule
1,Soluble,O=C(C1CCCCC1)N1CC(=O)N2CCc3ccccc3C2C1 (stereo not shown) [Praziquantel]
2,Poor,Cc1cnc(NC(=O)C2=C(O)c3ccccc3S(=O)(=O)N2C)s1 [Meloxicam]
3,Poor,CCCOc1ccc2nc(NC(=O)OC)[nH]c2c1 [Oxibendazole]
4,Soluble,Spinosad
5,Poor,CN1CCCN=C1/C=C/c1cccs1 [Pyrantel]
6,Poor,Milbemycin oxime
7,Poor,CC(C(=O)O)c1ccc2c(c1)[nH]c1ccc(Cl)cc12 (stereo not shown) [Carprofen]
